# Test results: patent publication US20230165252A1, “ACTIVE COMPOUND COMBINATIONS” (Bayer Aktiengesellschaft, priority 2020, published 2023)
# Assay: Measurement of Log P values by HPLC on reversed phase columns (EEC directive 79/831 Annex V.A8), methods [a], [b], [c]
# Type: physicochemical
# Settings: HPLC on reversed phase column, method [a]
# Experimental: Measurement of Log P values as provided herein was performed according to EEC directive 79/831 Annex V.A8 by HPLC (High Performance Liquid Chromatography) on reversed phase columns with the following methods: • ^[a]
row,Compound,LogP
1,COc1ccc(C(F)(F)CNC(=O)c2cc(Cl)nnc2Oc2cccc(C(F)(F)F)c2)c(Cl)c1 [I-007],4.00^[a]
2,Cc1cc(C(=O)NCC(F)(F)c2ccc(C3CCCCC3)cc2Cl)c(Oc2cccc(C(F)(F)F)c2)nn1 [I-018],5.44^[a]
3,Cc1cc(C(=O)NCC(F)(F)c2ccc(C3CCC3)cc2Cl)c(Oc2cccc(C(F)(F)F)c2)nn1 [I-028],4.83^[a]
4,COc1ccc(CCNC(=O)c2cc(Cl)nnc2Oc2cccc(C(F)(F)F)c2)cc1 [I-036],3.61^[a]
5,O=C(NCCc1ncccc1C(F)(F)F)c1cc(Cl)nnc1Oc1cccc(C(F)(F)F)c1 [I-037],3.65^[a]
6,Cc1ccc(C(F)(F)CNC(=O)c2c(Oc3cccc(C(F)(F)F)c3)nnc(Cl)c2NCC(C)(C)O[Si](C)(C)C)c(C)c1 [I-064],6.32^[a]

# Same assay, conditions: method [a]: LC-UV, acidic range, 0.1% formic acid in water and acetonitrile as eluent (10% to 95% acetonitrile); Table 3, compounds of formula (1)
row,Compound,LogP
1,CC(C)OC(=O)c1cc(-c2ccncc2Cl)nnc1Oc1cccc(F)c1F [Compound 1-074],3.65^[a]
2,Cc1nnc(Oc2cccc(C3CC3)c2F)c(C(=O)O)c1C [Compound 1-077],1.31^[a]
3,COC(=O)c1c(Oc2cccc(C(F)(F)F)c2)nnc(Cl)c1-n1cccn1 [Compound 1-084],3.53^[a]
4,CC(=O)c1cccc(Oc2nnc(Cl)cc2C(=O)O)c1 [Compound 1-093],1.01^[a]
5,Cc1cc(C(=O)O)c(Oc2cccc(C(F)F)c2)nn1 [Compound 1-098],1.36^[a]
6,CC(C)OC(=O)c1cc(Cl)nnc1Oc1cncc(C(F)F)c1 [Compound 1-102],2.82^[a]
7,CNc1c(Cl)nnc(Oc2cccc(C3CC3)c2F)c1C(=O)O [Compound 1-116],1.97^[a]
8,Cc1c(Cl)nnc(Oc2cccc(C(F)F)c2F)c1C(=O)O [Compound 1-117],1.49^[a]
9,Cc1c(Cl)nnc(Oc2cccc(Cl)c2F)c1C(=O)O [Compound 1-122],1.68^[a]
10,Cc1cc(C(=O)O)c(Oc2cccc(C(F)(F)F)c2)nn1 [Compound 1-125],1.92^[a]
11,O=C(O)c1cc(I)nnc1Oc1cccc(C(F)(F)F)c1 [Compound 1-127],2.08^[a]

# Same assay, conditions: method [a]: LC-UV, acidic range, 0.1% formic acid in water and acetonitrile as eluent; Table 5, compounds of formula (2)
row,Compound,LogP
1,C#Cc1ccc(C(F)(F)CN)c(C)c1 [Compound 2-01],0.93^[a]
2,Cc1cc(C)c(C(F)(F)CN)c(F)c1 [Compound 2-03],0.95^[a]
3,NCC(F)(F)c1cccc(Br)c1Cl [Compound 2-04],0.87^[a]

# Same assay, conditions: method [a]: LC-UV, acidic range, 0.1% formic acid in water and acetonitrile as eluent; Table 9, compounds of formula (4)
row,Compound,LogP
1,CC=Cc1cccc(O)c1F [Compound 4-01],2.33^[a]

# Same assay, conditions: reversed-phase HPLC column, HPLC method [a]
row,Compound,chromatographic logP
1,"Cc1cc(C2CC2)ccc1C(F)(F)CNC(=O)c1cc(Cl)nnc1Oc1cccc(C(F)(F)F)c1 [Compound I-240, 6-chloro-N-[2-(4-cyclopropyl-2-methyl-phenyl)-2,2-difluoro-ethyl]-3-[3-(tri-fluoromethyl)phenoxy]pyridazine-4-carboxamide]",4.77
2,"CCc1c(Cl)nnc(Oc2cccc(C(F)(F)F)c2)c1C(=O)NCC(F)(F)c1ccc(Cl)cc1 [Compound I-254, 6-chloro-N-[2-(4-chlorophenyl)-2,2-difluoro-ethyl]-5-ethyl-3-[3-(trifluoromethyl)phenoxy]pyridazine-4-carboxamide]",4.51
3,"COC(=O)N(CC(F)(F)c1ccc(C)cc1C)C(=O)c1cc(Cl)nnc1Oc1cccc(C(F)(F)F)c1 [Compound I-335, methyl N-[6-chloro-3-[3-(trifluoromethyl)phenoxy]pyridazine-4-carbonyl]-N-[2-(2,4-dimethylphenyl)-2,2-difluoro-ethyl]carbamate]",5.19
4,"Cc1ccc(C(F)(F)CNC(=O)c2c(Oc3cccc(C(F)(F)F)c3)nnc(Cl)c2NC2COC2)c(C)c1 [Compound I-408, 6-chloro-N-[2-(2,4-dimethylphenyl)-2,2-difluoro-ethyl]-5-(oxetan-3-ylamino)-3-[3-(trifluoromethyl)phenoxy]pyridazine-4-carboxamide]",3.85

# Same assay, conditions: reversed-phase HPLC column, HPLC method [b]
row,Compound,chromatographic logP
1,"Cc1ccc(C(F)(F)CNC(=O)c2c(Oc3cccc(C(F)(F)F)c3)nnc(Cl)c2NC2COC2)c(C)c1 [Compound I-408, 6-chloro-N-[2-(2,4-dimethylphenyl)-2,2-difluoro-ethyl]-5-(oxetan-3-ylamino)-3-[3-(trifluoromethyl)phenoxy]pyridazine-4-carboxamide]",3.94

# Same assay, conditions: reversed-phase HPLC column, HPLC on reversed phase column, method [a]
row,Compound,chromatographic logP
1,"Cc1ccc(C(F)(F)CNC(=O)c2cc(Cl)nnc2Oc2cccc(C(F)(F)F)c2)c(C)c1 [Compound I-014, 6-chloro-N-[2-(2,4-dimethylphenyl)-2,2-difluoro-ethyl]-3-[3-(trifluoromethyl)phenoxy]pyridazine-4-carboxamide]",4.46
2,"Cc1ccc(C(F)(F)CNC(=O)c2c(Oc3cccc(C(F)(F)F)c3)nnc(Cl)c2I)c(C)c1 [Compound I-020, 6-chloro-N-[2-(2,4-dimethylphenyl)-2,2-difluoro-ethyl]-5-iodo-3-[3-(trifluoromethyl)phenoxy]pyridazine-4-carboxamide]",4.61
3,"COCCc1c(Cl)nnc(Oc2cccc(C(F)(F)F)c2)c1C(=O)NCC(F)(F)c1ccc(Br)cc1Cl [Compound I-070, N-[2-(4-bromo-2-chloro-phenyl)-2,2-difluoro-ethyl]-6-chloro-5-(2-methoxyethyl)-3-[3-(trifluoromethyl)phenoxy]pyridazine-4-carboxamide]",4.77
4,"Cc1ccc(CCNC(=S)c2cc(C)nnc2Oc2cccc(C(F)(F)F)c2)c(C)c1 [Compound I-094, N-[2-(2,4-dimethylphenyl)ethyl]-6-methyl-3-[3-(trifluoro-methyl)phenoxy]pyridazine-4-carbothioamide]",4.69
5,"Cc1ccc(C(F)(F)CNC(=O)c2c(Oc3cccc(C4CC4)c3F)nnc(Cl)c2C)c(Br)c1 [Compound I-840, N-[2-(2-bromo-4-methylphenyl)-2,2-difluoroethyl]-6-chloro-3-(3-cyclopropyl-2-fluoro-phenoxy)-5-methylpyridazine-4-carboxamide]",4.57

# Same assay, conditions: reversed-phase HPLC column, method [a]
row,Compound,chromatographic logP
1,"O=C(NCC(F)(F)c1ccc(Br)cc1Cl)c1cc(Cl)nnc1Cl [Compound 3-10, N-[2-(4-bromo-2-chloro-phenyl)-2,2-difluoro-ethyl]-3,6-dichloro-pyridazine-4-carboxamide]",3.29
2,"Cc1ccc(C(F)(F)CNC(=O)c2cc(I)nnc2Oc2cccc(C(F)(F)F)c2)c(C)c1 [Compound I-461, N-[2-(2,4-dimethylphenyl)-2,2-difluoro-ethyl]-6-iodo-3-[3-(trifluoromethyl)phenoxy]pyridazine-4-carboxamide]",4.67
3,"O=C(NCC(F)(F)c1ccc(Br)cc1Cl)c1cc(Cl)nnc1Oc1cccc(F)c1F [Compound I-530, N-[2-(4-bromo-2-chloro-phenyl)-2,2-difluoro-ethyl]-6-chloro-3-(2,3-difluorophenoxy)pyridazine-4-carboxamide]",4.27
4,"Cc1ccc(C(F)(F)CNC(=O)c2c(Oc3cccc(C(F)(F)F)c3)nnc(Cl)c2-c2cccnc2)c(C)c1 [Compound I-550, 6-chloro-N-[2-(2,4-dimethylphenyl)-2,2-difluoro-ethyl]-5-(3-pyridyl)-3-[3-(trifluoromethyl)phenoxy]pyridazine-4-carboxamide]",3.99
5,"Cc1ccc(C(F)(F)CNC(=O)c2cc(C)nnc2Oc2cccc(C3CCC3)c2)c(C)c1 [Compound I-564, 3-(3-cyclobutylphenoxy)-N-[2-(2,4-dimethylphenyl)-2,2-difluoro-ethyl]-6-methyl-pyridazine-4-carboxamide]",3.85
6,"CSc1cc(C(=O)NCC(F)(F)c2ccc(C)cc2C)c(Oc2cccc(C(F)(F)F)c2)nn1 [Compound I-767, N-[2-(2,4-dimethylphenyl)-2,2-difluoro-ethyl]-6-methylsulfanyl-3-[3-(trifluoromethyl)phenoxy]pyridazine-4-carboxamide]",4.72
7,"Cc1ccc(C(F)(F)CNC(=O)c2c(Oc3cccc(Cl)c3)nnc(Cl)c2C)c(C)c1 [Compound I-790, 6-chloro-3-(3-chlorophenoxy)-N-[2-(2,4-dimethylphenyl)-2,2-difluoro-ethyl]-5-methyl-pyridazine-4-carboxamide]",4.27

# Same assay, conditions: reversed-phase HPLC column, method [a]: LC-UV, acidic range, 0.1% formic acid in water and acetonitrile as eluent (10% to 95% acetonitrile); Table 3, compounds of formula (1)
row,Compound,chromatographic logP
1,"C=Cc1c(Cl)nnc(Oc2cccc(C(F)(F)F)c2)c1C(=O)OC [Compound 1-069, methyl 6-chloro-3-[3-(trifluoromethyl)phenoxy]-5-vinyl-pyridazine-4-carboxylate]",3.94
2,COC(=O)c1cc(Cl)nnc1Oc1cccc(C(F)(F)F)n1 [Compound 1-071],2.69
3,COC(=O)c1cc(Cl)nnc1Oc1cccc(C(F)(F)F)c1 [Compound 1-079],3.27
4,CCOC(=O)c1cc(SC)nnc1Oc1cccc(C(F)(F)F)c1 [Compound 1-083],3.96
5,COC(=O)c1c(Oc2cccc(C(F)(F)F)c2)nnc(Cl)c1-c1ccccc1 [Compound 1-085],4.25
6,COC(=O)c1cc(Cl)nnc1Oc1cncc(Br)c1 [Compound 1-086],2.33
7,CCOC(=O)c1cc(Cl)nnc1Oc1cncc(C(F)(F)F)c1 [Compound 1-088],3
8,COC(=O)c1cc(Cl)nnc1Oc1cccc(C2CC2)c1F [Compound 1-099],3.45
9,COC(=O)c1cc(C)nnc1Oc1cccc(C2CC2)c1F [Compound 1-100],2.89
10,COC(=O)c1c(Oc2cccc(C3CC3)c2F)nnc(Cl)c1C [Compound 1-101],3.7
11,CCOC(=O)c1cc(C)nnc1Oc1cccc(C2CC2)c1F [Compound 1-112],3.29
12,CCOC(=O)c1cc(Cl)nnc1Oc1cccc(Cl)c1F [Compound 1-119],3.6
13,CCOC(=O)c1c(Oc2cccc(Cl)c2F)nnc(Cl)c1C [Compound 1-121],3.88
14,COC(=O)c1cc(Cl)nnc1Oc1cccc(C(F)F)c1 [Compound 1-124],2.76
15,CCOC(=O)c1cc(Cl)nnc1Oc1cccc(Br)c1 [Compound 1-130],3.65

# Same assay, conditions: reversed-phase HPLC column, method [b]
row,Compound,chromatographic logP
1,"O=C(NCC(F)(F)c1ccc(Br)cc1Cl)c1cc(Cl)nnc1Cl [Compound 3-10, N-[2-(4-bromo-2-chloro-phenyl)-2,2-difluoro-ethyl]-3,6-dichloro-pyridazine-4-carboxamide]",3.24

# Same assay, conditions: reversed-phase HPLC column; method [b]: LC-UV, neutral range, 0.001 molar ammonium acetate solution in water and acetonitrile as eluent (10% to 95% acetonitrile); Table 3, compounds of formula (1)
row,Compound,chromatographic logP
1,CCOC(=O)c1cc(Cl)nnc1Oc1cncc(C2CC2)c1 [Compound 1-076],2.6
